# Measured values reported in patent publication US5011947A, “Antihypercholesterolemic alkylene compounds” (Bristol-Myers, priority 1990, dated 1991).
# Structures can show the parent of a compound that is named as a salt.
# Molecular target: T1, rat liver HMG-CoA reductase (Rattus norvegicus, UniProt P51639)
# T1 construct: from tissue; host or cells: rat liver microsomes
# T1 sequence (P51639 1-887): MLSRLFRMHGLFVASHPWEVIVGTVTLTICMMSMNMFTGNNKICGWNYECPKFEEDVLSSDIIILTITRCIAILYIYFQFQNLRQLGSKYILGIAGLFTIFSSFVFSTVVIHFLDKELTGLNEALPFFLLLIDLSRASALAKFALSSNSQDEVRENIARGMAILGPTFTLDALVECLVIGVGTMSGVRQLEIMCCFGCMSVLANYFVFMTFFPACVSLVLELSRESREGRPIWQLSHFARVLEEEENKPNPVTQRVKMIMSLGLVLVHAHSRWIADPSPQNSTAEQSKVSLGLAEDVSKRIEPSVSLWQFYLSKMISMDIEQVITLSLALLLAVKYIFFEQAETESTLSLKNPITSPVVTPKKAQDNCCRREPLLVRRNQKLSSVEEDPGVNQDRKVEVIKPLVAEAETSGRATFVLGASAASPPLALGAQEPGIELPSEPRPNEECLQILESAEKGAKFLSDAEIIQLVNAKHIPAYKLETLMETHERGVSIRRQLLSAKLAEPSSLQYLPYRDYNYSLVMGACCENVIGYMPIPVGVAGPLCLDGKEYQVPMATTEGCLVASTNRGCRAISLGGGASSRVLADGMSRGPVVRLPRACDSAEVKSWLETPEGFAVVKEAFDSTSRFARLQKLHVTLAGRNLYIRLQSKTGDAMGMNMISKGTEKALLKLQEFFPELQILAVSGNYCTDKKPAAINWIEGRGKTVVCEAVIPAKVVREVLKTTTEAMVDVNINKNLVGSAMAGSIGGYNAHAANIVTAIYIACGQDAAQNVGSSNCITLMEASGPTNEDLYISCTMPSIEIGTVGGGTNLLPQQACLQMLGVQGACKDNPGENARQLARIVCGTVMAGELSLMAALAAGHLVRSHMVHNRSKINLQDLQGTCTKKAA
# Assay: Test A: In Vitro Inhibition of Microsomal HMG-CoA Reductase
# Assay type: biochemical
# Settings: intact, fully activated microsomal form of rat liver enzyme; [3-14C]-HMG-CoA 0.33 mM; NADPH 3.0 mM; pH 7.2; at least 4 dilutions in duplicate
# Experimental: Test A: In Vitro Inhibition of Microsomal HMG-CoA Reductase:
# The intact, fully activated microsomal form of rat liver HMG-CoA reductase (subunit MW ca 100,000 daltons) was prepared as described by Parker, et al., Biochem. Biophys. Res. Commun., 125, 629-635 (1984), and used as the source of enzyme for assays. HMG-CoA reductase activity was determined essentially by the method of Shapiro, et al., Biochem. Biophys. Acta., 370. 369-377 (1974), with modifications as described by Ingebritsen and Gibson, Meth. Enzymol. 71. 486-497 (1981) with the exception that the internal standard ^3 H-mevalonolactone is added after termination of the assay. In this procedure, the enzyme is assayed by measuring the formation of product, ^14 C-mevalonate, from the substrate, [3-^14 C]-HMG-CoA, in the presence of NADPH. The ^14 C-mevalonate is converted to its lactone and isolated by silica thin-layer chromatography (Whatman LK5D, developed in 50:50 benzene:acetone) in the presence of ^3 H-mevalonolactone as an internal standard. Assays were conducted under conditions in which product formation was linear with respect to time and enzyme concentration.
# To measure reductase inhibition, test compounds dissolved in water or dimethylsulfoxide and diluted in buffer A (50 mM imidazole-HCl, 250 mM NaCl, 1 mM EDTA, 1 mM EGTA, 5 mM DTT, 20 μM leupeptin, pH =7.2) were incubated with aliquots of microsomes (80-160 μg protein in buffer A) followed by addition of d,l-[3-^14 C]-HMG-CoA (0.33 mM, 2.0 dpm/picomole) and NADPH (3.0 mM). The 50 percent inhibitory concentration IC50) for each compound in Table 1 was calculated from the linear regression line of the percent decrease (from control) in enzyme activity vs. log concentration of inhibitor, determined using at least 4 dilutions of each test compound assayed in duplicate.
row,Compound,IC50 [nM]
1,"CC(C)C(C=C[C@@H](O)C[C@@H](O)CC(=O)O)=C(c1ccc(F)cc1)c1ccc(F)cc1 (relative stereo) [Example 8, Erythro-9,9-bis(4-fluorophenyl)-3,5-dihydroxy-8-(1-methylethyl)-6,8-nonadienoic acid sodium salt]",265
2,"CC(C)(C)C(C=C[C@@H](O)C[C@@H](O)CC(=O)O)=C(c1ccc(F)cc1)c1ccc(F)cc1 (relative stereo) [Example 42, Erythro-9,9-bis(4-fluorophenyl)-3,5-dihydroxy-8-(1,1-dimethylethyl)-6,8-nonadienoic acid sodium salt]",500
3,"O=C(O)C[C@H](O)C[C@H](O)C=CC(=C(c1ccc(F)cc1)c1ccc(F)cc1)C1CC1 (relative stereo) [Example 51, Erythro-8-cyclopropyl-9,9-bis(4-fluorophenyl)-3,5-dihydroxy-6,8-nonadienoicacid sodium salt]",450
4,"CCC(C=C[C@@H](O)C[C@@H](O)CC(=O)O)=C(c1ccc(F)cc1)c1ccc(F)cc1 (relative stereo) [Example 59, Erythro-8-ethyl-9,9-bis(4-fluorophenyl)-3,5-dihydroxy-6,8-non adienoate sodium salt]",410
5,"O=C(O)C[C@H](O)C[C@H](O)C=CC(=C(c1ccc(F)cc1)c1ccc(F)cc1)C(F)(F)F (relative stereo) [Example 73, Erythro9,9-bis(4-fluorophenyl)-3,5-dihydroxy-8-trifluoromethyl-6,8-nonadienoic acid sodium salt]",1580

# System: Isolated Hepatocyte Cholesterol Biosynthesis
# Assay: Test B: Isolated Hepatocyte Cholesterol Biosynthesis Assay
# Assay type: cell-based, male Wistar rats
# Settings: freshly isolated rat hepatocytes, 10 min preincubation, 60 minutes at 37°, pH 7.35, incorporation of 3H or 14C into sterols, read-out: IC50, Inhibition of Isolated Hepatocyte Cholesterol Biosynthesis
# Experimental: Test B: Isolated Hepatocyte Cholesterol Biosynthesis Assay:
# Intact parenchymal hepatocytes were isolated from male Wistar rats (180-280 g) fed cholestyramine containing or normal diet, using the collagenase perfusion method essentially as described by Seglen, in Methods in Cell Biology (D. Prescott, ed.) Vol. 13, pp. 29-83, Academic Press, New York (1976). Cell preparations were used only when viability (trypan blue exclusion) exceeded 90%. Cholesterol biosynthesis was determined as the incorporation by hepatocytes of ^3 H from [^3 H]-water into total (cellular plus medium) 3β-hydroxy sterols as per Ingebritsen, et al., J. Biol. Chem., 254, 9986-9989 (1979). Hepatocyte sterols and lipids were isolated by a modification of the methods described by Kates, in Techniques in Lipidology. (M. Kates, ed.), pp. 349, 360-363, North Holland Publ. Co., Amsterdam, 1972. To isolate sterols, cells are extracted with methanol:chloroform:water (2:1:0.8), the chloroform phase is separated and extracted with benzene to remove traces of water, then dried under nitrogen. The residue is saponified at 75° C. with 0.30 N NaOH in methanol:water (9:1). […] The ^3 H-labelled sterols are quantified by liquid scintillation and corrected for counting efficiency. […]
row,Compound,IC50 [nM]
1,"CC(C)C(C=C[C@@H](O)C[C@@H](O)CC(=O)O)=C(c1ccc(F)cc1)c1ccc(F)cc1 (relative stereo) [Example 8, Erythro-9,9-bis(4-fluorophenyl)-3,5-dihydroxy-8-(1-methylethyl)-6,8-nonadienoic acid sodium salt]",27
2,"CC[C@H](C)C(=O)O[C@H]1C[C@@H](C)C=C2C=C[C@H](C)[C@H](CC[C@@H]3C[C@@H](O)CC(=O)O3)[C@H]21 [Mevinolin (Lovastatin), reference compound]",46 ± 26
